Results published in ChEMBL document CHEMBL5370661, “Development of Fluorescent AF64394 Analogues Enables Real-Time Binding Studies for the Orphan Class A GPCR GPR3” (J Med Chem, 2023).
The source made the active and inactive calls. The rule behind the calls is not given here.

Experiments:
[1] = target: T1, G-protein coupled receptor 3 (Homo sapiens, UniProt P46089); experiment: Binding affinity to N-terminal 3xHA/Nluc-tagged full-length wild-type human GPR3 expressed in HEK293A cells using vivazine as substrate by time-course saturation based NanoBRET assay; format: cell-based; conditions: HEK293-A, time 180.0 min, TDE = time-dependent effect
T1 sequence (P46089 whole entry): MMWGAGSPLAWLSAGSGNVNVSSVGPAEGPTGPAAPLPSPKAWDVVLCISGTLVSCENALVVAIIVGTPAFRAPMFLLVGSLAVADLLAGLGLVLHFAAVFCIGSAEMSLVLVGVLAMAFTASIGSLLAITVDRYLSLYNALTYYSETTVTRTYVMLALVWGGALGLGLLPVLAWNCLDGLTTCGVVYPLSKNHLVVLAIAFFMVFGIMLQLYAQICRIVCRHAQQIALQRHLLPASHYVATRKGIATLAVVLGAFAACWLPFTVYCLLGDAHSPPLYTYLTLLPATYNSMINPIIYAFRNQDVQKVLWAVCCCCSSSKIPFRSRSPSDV

[2] = target: T1, G-protein coupled receptor 3; experiment: Binding affinity to N-terminal 3xHA/Nluc-tagged full-length wild-type human GPR3 expressed in HEK293A cells using vivazine as substrate measured for 180 mins by time-course saturation based NanoBRET assay; format: cell-based; conditions: for Activity: HEK293-A
[3] = target: T1, G-protein coupled receptor 3; experiment: Binding affinity to N-terminal 3xHA/Nluc-tagged full-length wild-type human GPR3 expressed in HEK293A cells using vivazine as substrate at <=30 uM measured for 180 mins by time-course saturation based NanoBRET assay; format: cell-based; conditions: HEK293-A
[4] = target: T1, G-protein coupled receptor 3; experiment: Binding affinity to N-terminal 3xHA/Nluc-tagged full-length wild-type human GPR3 expressed in HEK293A cells using vivazine as substrate at 20 to 30 uM measured for 180 mins by time-course saturation based NanoBRET assay; format: cell-based; conditions: HEK293-A, dose 20-30 µM
[5] = target: T1, G-protein coupled receptor 3; experiment: Total binding affinity to N-terminal 3xHA/Nluc-tagged full-length wild-type human GPR3 expressed in HEK293A cells using furimazine as substrate measured for 3 hrs by NanoBRET assay; format: cell-based, HEK293-A
[6] = target: T1, G-protein coupled receptor 3; experiment: Specific binding affinity to N-terminal 3xHA/Nluc-tagged full-length wild-type human GPR3 expressed in HEK293A cells using furimazine as substrate measured for 3 hrs by NanoBRET assay; format: cell-based, HEK293-A
[7] = Specific binding affinity to N-terminal 3xHA/Nluc-tagged full-length wild-type human GPR12 expressed in HEK293A cells using furimazine as substrate measured for 3 hrs by NanoBRET assay; format: cell-based; conditions: hek293-a
[8] = target: T2, G-protein coupled receptor 6 (Homo sapiens, UniProt P46095); experiment: Specific binding affinity to full-length wild-type human brain GPR6 expressed in HEK293A cells using furimazine as substrate measured for 3 hrs by NanoBRET assay; format: cell-based, HEK293-A
T2 sequence (P46095 whole entry): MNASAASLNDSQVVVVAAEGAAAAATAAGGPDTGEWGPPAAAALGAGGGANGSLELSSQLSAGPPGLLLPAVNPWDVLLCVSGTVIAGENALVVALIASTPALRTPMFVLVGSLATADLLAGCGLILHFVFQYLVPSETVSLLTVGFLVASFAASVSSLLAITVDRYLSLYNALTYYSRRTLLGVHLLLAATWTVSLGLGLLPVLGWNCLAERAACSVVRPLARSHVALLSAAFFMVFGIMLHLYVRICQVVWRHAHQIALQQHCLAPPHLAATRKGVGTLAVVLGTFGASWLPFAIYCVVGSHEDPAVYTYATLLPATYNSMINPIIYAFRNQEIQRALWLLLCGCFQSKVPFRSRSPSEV

[9] = target: T1, G-protein coupled receptor 3; experiment: Competitive total binding affinity to N-terminal 3xHA/Nluc-tagged full-length wild-type human GPR3 expressed in HEK293A cells using furimazine as substrate at 1 uM measured for 3 hrs in presence of AF64394 by NanoBRET assay; format: cell-based, HEK293-A
[10] = target: T2, G-protein coupled receptor 6; experiment: Competitive total binding affinity to full-length wild-type human brain GPR6 expressed in HEK293A cells using furimazine as substrate at 1 uM measured for 3 hrs in presence of CVN424 by NanoBRET assay; format: cell-based, HEK293-A
[11] = target: T1, G-protein coupled receptor 3; experiment: Modulation of N-terminal 3xHA/Nluc-tagged full-length wild-type human GPR3 expressed in HEK293A cells using furimazine as substrate at 1 uM measured for 3 hrs in presence of DPI by NanoBRET assay; format: cell-based, HEK293-A
[12] = target: T1, G-protein coupled receptor 3; experiment: Binding affinity to N-terminal 3xHA/Nluc-tagged full-length wild-type human GPR3 expressed in HEK293A cells using vivazine as substrate assessed as increase in BRET ratio by time-course saturation based NanoBRET assay; format: cell-based; conditions: HEK293-A, filed as modulator
[13] = target: T1, G-protein coupled receptor 3; experiment: Inverse agonist activity at N-terminal 3xHA/Nluc-tagged full-length wild-type human GPR3 expressed in HEK293A cells co-expressing Fluc-tagged CRE assessed as reduction in CRE gene expression at 10 uM incubated for 24 hrs by luciferase based assay; format: functional, cell-based; conditions: HEK293-A, filed as inverse agonist
[14] = tested on: HEK293-A; experiment: Downregulation of CRE gene activity in HEK293-A cells expressing GPR6 incubated for 24 hrs by luciferase based assay; format: functional, cell-based; conditions: Homo sapiens
[15] = tested on: HEK293-A; experiment: Downregulation of CRE gene activity in HEK293-A cells expressing GPR12 incubated for 24 hrs by luciferase based assay; format: functional, cell-based; conditions: Homo sapiens
[16] = tested on: G-protein coupled receptor 3 (Homo sapiens), P46089 [V186W,V187W,Y188W]; experiment: Binding affinity to Nluc-tagged GPR3 V186W/V187W/Y188W mutant (unknown origin) expressed in HEK293A cells assessed as decrease in cAMP level by biosensor based FRET assay; format: cell-based; conditions: HEK293-A
Chain of G-protein coupled receptor 3 (Homo sapiens), P46089 [V186W,V187W,Y188W] (P46089 whole entry V186W/V187W/Y188W): as the sequence (P46089 whole entry) above, with V186W, V187W, Y188W counted along it

[17] = tested on: G-protein coupled receptor 3 (Homo sapiens), P46089 [Y188W]; experiment: Binding affinity to Nluc-tagged GPR3 Y188W mutant (unknown origin) expressed in HEK293A cells assessed as decrease in cAMP level by biosensor based FRET assay; format: cell-based; conditions: HEK293-A, filed as modulator
Chain of G-protein coupled receptor 3 (Homo sapiens), P46089 [Y188W] (P46089 whole entry Y188W): as the sequence (P46089 whole entry) above, with Y188W counted along it

[18] = tested on: G-protein coupled receptor 3 (Homo sapiens), P46089 [V187W,Y188W]; experiment: Binding affinity to Nluc-tagged GPR3 V187W/Y188W mutant (unknown origin) expressed in HEK293A cells assessed as decrease in cAMP level by biosensor based FRET assay; format: cell-based; conditions: HEK293-A, filed as modulator
Chain of G-protein coupled receptor 3 (Homo sapiens), P46089 [V187W,Y188W] (P46089 whole entry V187W/Y188W): as the sequence (P46089 whole entry) above, with V187W, Y188W counted along it

[19] = tested on: HEK293-A; experiment: Binding affinity to Nluc-tagged GPR3 T279A/Y280A mutant (unknown origin) expressed in HEK293A cells assessed as decrease in cAMP level by biosensor based FRET assay; format: cell-based; conditions: Homo sapiens, filed as modulator
[20] = target: T1, G-protein coupled receptor 3; experiment: Binding affinity to N-terminal 3xHA/Nluc-tagged full-length wild-type human GPR3 expressed in HEK293A cells using vivazine as substrate at <10 uM measured for 180 mins by time-course saturation based NanoBRET assay; format: cell-based; conditions: HEK293-A
[21] = Chemical stability of compound in DMSO assessed as compound degradation incubated for 104 days by RP-HPLC analysis; format: physicochemical; conditions: 2496 h; time 104 day
[22] = Chemical stability of compound in aqueous solution assessed as compound degradation incubated for 104 days by RP-HPLC analysis; format: physicochemical; conditions: buffer, 2496 h; time 104 day
[23] = target: T1, G-protein coupled receptor 3; experiment: Binding affinity to N-terminal 3xHA/Nluc-tagged full-length wild-type human GPR3 expressed in HEK293A cells assessed as increase in BRET ratio incubated for 180 mins by NanoBRET assay; format: cell-based; conditions: HEK293-A

Activity [1]	Activity [2]	Activity [3]	EC50 [5]	SMILES	other results
Tde	Dose-Dependent Effect	Active	4470 nM	CC(C)Oc1cc(Cl)ccc1CNc1cc(-c2ccccc2OCCOCCOCCOCCOCCOCCNC(=O)c2ccc(-c3c4ccc(N(C)C)cc4[o+]c4cc(N(C)C)ccc34)c(C(=O)[O-])c2)nc2ncnn12	Activity [4]: inactive
			891 nM	CC(C)Oc1cc(Cl)ccc1CNc1cc(-c2ccccc2OCCCCCCNC(=O)c2ccc(-c3c4ccc(N(C)C)cc4[o+]c4cc(N(C)C)ccc34)c(C(=O)[O-])c2)nc2ncnn12	Kd [6]: 302 nM; Activity ([1]; filed as modulator): Tde; Kd [2]: 102 nM; Activity ([2]; filed as modulator): Dose-Dependent Effect; Activity ([3]; filed as modulator): Active; pKd [7]: 7.12; Kd [8]: 66.1 nM; IC50 [9]: 1260 nM; Ki [9]: 295 nM; IC50 [10]: 214 nM; Ki [10]: 13.2 nM; EC50 [11]: 1410 nM; Activity [12]: Dose-Dependent Effect; Activity [13]: Active; Activity [14]: Active; Activity [15]: Active; Activity ([16]; filed as modulator): Active; Activity [17]: Active; Activity [18]: Active; Activity [19]: Active
Tde	Dose-Dependent Effect	Active	> 10000 nM	CC(C)Oc1cc(Cl)ccc1CNc1cc(-c2ccc(OCCOCCOCCOCCNC(=O)c3ccc(-c4c5ccc(N(C)C)cc5[o+]c5cc(N(C)C)ccc45)c(C(=O)[O-])c3)cc2)nc2ncnn12	Activity [20]: inactive
Tde	Dose-Dependent Effect	Active	> 10000 nM	CC(C)Oc1cc(Cl)ccc1CNc1cc(-c2cccc(OCCOCCOCCOCCNC(=O)c3ccc(-c4c5ccc(N(C)C)cc5[o+]c5cc(N(C)C)ccc45)c(C(=O)[O-])c3)c2)nc2ncnn12	Activity [20]: inactive
				CC(C)Oc1cc(Cl)ccc1CNc1cc(-c2cc(F)ccc2Cl)nc2ncnn12	Activity [13]: Active; Activity [16]: inactive
Tde	Dose-Dependent Effect	Active	4470 nM	CC(C)Oc1cc(Cl)ccc1CNc1cc(-c2cccc(OCCCCCCNC(=O)c3ccc(-c4c5ccc(N(C)C)cc5[o+]c5cc(N(C)C)ccc45)c(C(=O)[O-])c3)c2)nc2ncnn12	Stability [21]: Stable
	inactive		> 31600 nM	COCC[N+]1=C(/C=C/C=C2/N(CCCCCC(=O)NCCOCCOCCOCCOCCOCCOc3ccccc3-c3cc(NCc4ccc(Cl)cc4OC(C)C)n4ncnc4n3)c3ccc(S(=O)(=O)O)cc3C2(C)CCCS(=O)(=O)O)C(C)(CCCS(=O)(=O)O)c2cc(S(=O)(=O)[O-])ccc21 (configuration not stated)	
Tde	Dose-Dependent Effect	Active	11200 nM	CC(C)Oc1cc(Cl)ccc1CNc1cc(-c2ccc(OCCCCCCNC(=O)c3ccc(-c4c5ccc(N(C)C)cc5[o+]c5cc(N(C)C)ccc45)c(C(=O)[O-])c3)cc2)nc2ncnn12	
	inactive		> 31600 nM	CC(C)Oc1cc(Cl)ccc1CNc1cc(-c2ccccc2OCCOCCOCCOCCNC(=O)CCCCCN2/C(=C/C=C/C3=[N+](CCOO)c4ccc(S(=O)(=O)O)cc4C3(C)CCCS(=O)(=O)[O-])C(C)(CCCS(=O)(=O)O)c3cc(S(=O)(=O)O)ccc32)nc2ncnn12 (configuration not stated)	
Tde	Dose-Dependent Effect	Active	3390 nM	CC(C)Oc1cc(Cl)ccc1CNc1cc(-c2ccccc2OCCOCCOCCOCCNC(=O)c2ccc(-c3c4ccc(N(C)C)cc4[o+]c4cc(N(C)C)ccc34)c(C(=O)[O-])c2)nc2ncnn12	Stability [22]: Stable; Activity [4]: inactive
	inactive		> 31600 nM	COCC[N+]1=C(/C=C/C=C2/N(CCCCCC(=O)NCCOCCOCCOCCOc3ccc(-c4cc(NCc5ccc(Cl)cc5OC(C)C)n5ncnc5n4)cc3)c3ccc(S(=O)(=O)O)cc3C2(C)CCCS(=O)(=O)O)C(C)(CCCS(=O)(=O)O)c2cc(S(=O)(=O)[O-])ccc21 (configuration not stated)	
				CN(C)c1ccc2c(-c3ccc(C(=O)NCCCC(=O)Nc4ccc(CCN5CN(c6ccccc6)C6(CCN(CCCC(=O)c7ccc(F)cc7)CC6)C5=O)cc4)cc3C(=O)[O-])c3ccc(N(C)C)cc3[o+]c2c1	Activity [23]: inactive
	inactive		> 31600 nM	COCC[N+]1=C(/C=C/C=C2/N(CCCCCC(=O)NCCOCCOCCOCCOc3cccc(-c4cc(NCc5ccc(Cl)cc5OC(C)C)n5ncnc5n4)c3)c3ccc(S(=O)(=O)O)cc3C2(C)CCCS(=O)(=O)O)C(C)(CCCS(=O)(=O)O)c2cc(S(=O)(=O)[O-])ccc21 (configuration not stated)	
